Here are results for 24 molecules from patent US7608619B2, “Substituted oxazole compounds with analgesic activity” (Gruenenthal GmbH, priority 2005, dated 2009).

The assay deals with T1, human μ-opiate receptor (Homo sapiens, UniProt P35372).
T1 construct: purchased Nen company, Zaventem, Belgium RB-HOM; host or cells: CHO-K1 cells (membrane preparation)
Nature of the assay: Affinity for the human μ-opiate receptor ([3H]-naloxone displacement, SPA, CHO-K1 membrane preparation). Conditions: test substance 1 μmole/l, displacement of 1 nmole/l [3H]-naloxone, percentage inhibition of the specific binding; for inhibition at 1 µM: read-out: μ-opioid receptor, % inhibition [1 μM]. The essentials: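 [3H]-naloxone (1 nmol/l) displacement by SPA with WGA beads, using membranes of CHO-K1 cells expressing the receptor, in 50 mmol/l Tris-HCl with 0.05% azide and 0.06% BSA; 90 min at room temperature. Non-specific binding defined with 25 μmol/l naloxone. Value is % inhibition of specific binding at 1 μmol/l test compound.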

T1 sequence (P35372 whole entry): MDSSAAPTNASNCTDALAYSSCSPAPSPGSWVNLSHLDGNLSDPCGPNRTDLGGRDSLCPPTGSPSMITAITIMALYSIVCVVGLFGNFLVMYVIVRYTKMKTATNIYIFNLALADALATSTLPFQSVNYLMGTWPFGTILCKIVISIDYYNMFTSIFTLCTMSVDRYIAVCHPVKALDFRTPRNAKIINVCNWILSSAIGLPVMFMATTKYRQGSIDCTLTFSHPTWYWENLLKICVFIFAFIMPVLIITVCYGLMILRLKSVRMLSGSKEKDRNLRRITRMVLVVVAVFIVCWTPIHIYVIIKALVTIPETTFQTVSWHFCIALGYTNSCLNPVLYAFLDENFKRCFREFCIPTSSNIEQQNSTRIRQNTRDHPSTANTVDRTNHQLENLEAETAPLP

Turning to `COc1ccc(N2CCN(c3oc(C(C4CCC(C(c5cccs5)N(C)C)CC4)N4CCOCC4)nc3Cc3ccccc3)CC2)cc1` (stereo not drawn) [compound 140, {[4-({4-benzyl-5-[4-(4-methoxyphenyl)-piperazin-1-yl]-oxazol-2-yl}-morpholin-4-yl-methyl)-cyclohexyl]-thiophen-2-yl-methyl}-dimethylamine], the inhibition (usually the percentage by which the read-out fell short of the control) at 1 µM came out at 67%.

As for `CC1CN(c2oc(C(C3CCC(C(c4cccs4)N(C)C)CC3)N3CCOCC3)nc2Cc2ccccc2)CC(C)O1` (stereo not drawn) [compound 141, [(4-{[4-benzyl-5-(2,6-dimethylmorpholin-4-yl)-oxazol-2-yl]-morpholin-4-yl-methyl}-cyclohexyl)-thiophen-2-yl-methyl]-dimethylamine], the inhibition at 1 µM turned out to be 65%.

On to `CN(C)C(c1cccs1)C1CCC(C(c2nc(Cc3ccccc3)c(N3CCCC3)o2)N2CCN(c3ccc(F)cc3)CC2)CC1` (stereo not drawn) [compound 142, [(4.-{(4-benzyl-5-pyrrolidin-1-yl-oxazol-2-yl)-[4-(4-fluorophenyl)-piperazin-1-yl]-me.thyl}-cyclohexyl)-thiophen-2-yl-methyl]-dimethylamine], for which the “μ-opioid receptor, % inhibition [1 μM]” value was determined as 85%.

With `COc1ccc(N2CCN(C(c3nc(Cc4ccccc4)c(N4CCCC4)o3)C3CCC(C(c4cccs4)N(C)C)CC3)CC2)cc1` (stereo not drawn) [compound 143, [(4-{(4-benzyl-5-pyrrolidin-1-yl-oxazol-2-yl)-[4-(4-methoxyphenyl)-piperazin-1-yl]-methyl}-cyclohexyl)-thiophen-2-yl-methyl]-dimethylamine], the inhibition at 1 µM came to 77%.

For `COc1ccc(N2CCN(C(c3nc(Cc4ccccc4)c(N4CCOCC4)o3)C3CCC(C(c4cccs4)N(C)C)CC3)CC2)cc1` (stereo not drawn) [compound 144, [(4-{(4-benzyl-5-morpholin-4-yl-oxazol-2-yl)-[4-(4-methoxy-phenyl)-piperazin-1-yl]-methyl}-cyclohexyl)-thiophen-2-yl-methyl]-dimethylamine], the inhibition at 1 µM stood at 64%.

Turning to `COc1ccc(N2CCN(C(c3nc(Cc4ccccc4)c(N4CC(C)OC(C)C4)o3)C3CCC(C(c4cccs4)N(C)C)CC3)CC2)cc1` (stereo not drawn) [compound 145, [(4-{[4-benzyl-5-(2,6-dimethylmorpholin-4-yl)-oxazol-2-yl]-[4-(4-methoxy-phenyl)-piperazin-1-yl]-methyl}-cyclohexyl)-thiophen-2-yl-methyl]-dimethylamine], the inhibition at 1 µM came out at 69%.

Take `CN(C)C(c1cccs1)C1CCC(C(c2nc(Cc3ccccc3)c(N3CCCC3)o2)N2CCc3ccccc3C2)CC1` (stereo not drawn) [compound 146, ({4-[(4-benzyl-5-pyrrolidin-1-yl-oxazol-2-yl)-(3,4-dihydro-1H-isoquinolin-2-yl)-methyl]-cyclohexyl}-thiophen-2-yl-methyl)-dimethylamine]: the inhibition at 1 µM was 92%.

Take `COc1ccc(N2CCN(c3oc(C(C4CCC(C(c5cccs5)N(C)C)CC4)N4CCc5ccccc5C4)nc3Cc3ccccc3)CC2)cc1` (stereo not drawn) [compound 147, ({4-[{4-benzyl-5-[4-(4-methoxyphenyl)-piperazin-1-yl]-oxazol-2-yl}-(3,4-dihydro-1H-isoquinolin-2-yl)-methyl]-cyclohexyl}-thiophen-2-yl-methyl)-dimethylamine]: the inhibition at 1 µM was determined as 91%.

With `CC1CN(c2oc(C(C3CCC(C(c4cccs4)N(C)C)CC3)N3CCc4ccccc4C3)nc2Cc2ccccc2)CC(C)O1` (stereo not drawn) [compound 148, ({4-[[4-benzyl-5-(2,6-dimethylmorpholin-4-yl)-oxazol-2-yl]-(3,4-dihydro-1H-isoquinolin-2-yl)-methyl]-cyclohexyl}-thiophen-2-yl-methyl)-dimethylamine], the inhibition at 1 µM is 84%.

Turning to `CN(C)C(c1cccc(F)c1)C1CCC(CC(c2nc(Cc3ccccc3)c(N3CCCC3)o2)N2CCOCC2)CC1` (stereo not drawn) [compound 149, [{4-[2-(4-benzyl-5-pyrrolidin-1-yl-oxazol-2-yl)-2-morpholin-4-yl-ethyl]-cyclohexyl}-(3-fluorophenyl)-methyl]-dimethylamine], the inhibition at 1 µM came out at 87%.

For `CN(C)C(c1cccc(F)c1)C1CCC(CC(c2nc(Cc3ccccc3)c(N3CCOCC3)o2)N2CCOCC2)CC1` (stereo not drawn) [compound 150, [{4-[2-(4-benzyl-5-morpholin-4-yl-oxazol-2-yl)-2-morpholin-4-yl-ethyl]-cyclohexyl}-(3-fluorophenyl)-methyl]-dimethylamine], the inhibition at 1 µM turned out to be 75%.

`COc1ccc(N2CCN(c3oc(C(CC4CCC(C(c5cccc(F)c5)N(C)C)CC4)N4CCOCC4)nc3Cc3ccccc3)CC2)cc1` (stereo not drawn) [compound 151, [[4-(2-{4-benzyl-5-[4-(4-methoxyphenyl)-piperazin-1-yl]-oxazol-2-yl}-2-morpholin-4-yl-ethyl)-cyclohexyl]-(3-fluorophenyl)-methyl]-dimethylamine]: the inhibition at 1 µM worked out at 89%.

For the molecule `CC1CN(c2oc(C(CC3CCC(C(c4cccc(F)c4)N(C)C)CC3)N3CCOCC3)nc2Cc2ccccc2)CC(C)O1` (stereo not drawn) [compound 152, [(4-{2-[4-benzyl-5-(2,6-dimethylmorpholin-4-yl)-oxazol-2-yl]-2-morpholin-4-yl-ethyl}-cyclohexyl)-(3-fluorophenyl)-methyl]-dimethylamine], the inhibition at 1 µM worked out at 65%.

`CC1CN(c2oc(C(CC3CCC(C(c4cccc(F)c4)N(C)C)CC3)N3CCN(c4ccc(F)cc4)CC3)nc2Cc2ccccc2)CC(C)O1` (stereo not drawn) [compound 153, [(4-{2-[4-benzyl-5-(2,6-dimethylmorpholin-4-yl)-oxazol-2-yl]-2-[4-(4-fluorophenyl)-piperazin-1-yl]-ethyl}-cyclohexyl)-(3-fluorophenyl)-methyl]-dimethylamine]: the inhibition at 1 µM is 71%.

For the molecule `COc1ccc(N2CCN(C(CC3CCC(C(c4cccc(F)c4)N(C)C)CC3)c3nc(Cc4ccccc4)c(N4CCOCC4)o3)CC2)cc1` (stereo not drawn) [compound 154, [(4-{2-(4-benzyl-5-morpholin-4-yl-oxazol-2-yl)-2-[4-(4-methoxy-phenyl)-piperazin-1-yl]-ethyl}-cyclohexyl)-(3-fluorophenyl)-methyl]-dimethylamine], the inhibition at 1 µM was found to be 86%.

For `COc1ccc(N2CCN(c3oc(C(CC4CCC(C(c5cccc(F)c5)N(C)C)CC4)N4CCN(c5ccc(OC)cc5)CC4)nc3Cc3ccccc3)CC2)cc1` (stereo not drawn) [compound 155, [(4-{2-{4-benzyl-5-[4-(4-methoxyphenyl)-piperazin-1-yl]-oxazol-2-yl}-2-[4-(4-methoxyphenyl)-piperazin-1-yl]-ethyl}-cyclohexyl)-(3-fluorophenyl)-methyl]-dimethylamine], the inhibition at 1 µM stood at 82%.

As for `COc1ccc(N2CCN(C(CC3CCC(C(c4cccc(F)c4)N(C)C)CC3)c3nc(Cc4ccccc4)c(N4CC(C)OC(C)C4)o3)CC2)cc1` (stereo not drawn) [compound 156, [(4-{2-[4-benzyl-5-(2,6-dimethylmorpholin-4-yl)-oxazol-2-yl]-2-[4-(4-methoxyphenyl)-piperazin-1-yl]-ethyl}-cyclohexyl)-(3-fluorophenyl)-methyl]-dimethylamine], the inhibition at 1 µM is 74%.

Take `COc1ccc(N2CCN(c3oc(C(CC4CCC(C(c5cccc(F)c5)N(C)C)CC4)N4CCc5ccccc5C4)nc3Cc3ccccc3)CC2)cc1` (stereo not drawn) [compound 157, [{4-[2-{4-benzyl-5-[4-(4-methoxy-phenyl)-piperazin-1-yl]-oxazol-2-yl}-2-(3,4-dihydro-1H-isoquinolin-2-yl)-ethyl]-cyclohexyl}-(3-fluorophenyl)-methyl]-dimethylamine]: the inhibition at 1 µM came out at 84%.

Consider `CN(C)C(c1cccs1)C1CCC(CC(c2nc(Cc3ccccc3)c(N3CCOCC3)o2)N2CCOCC2)CC1` (stereo not drawn) [compound 158, ({4-[2-(4-benzyl-5-morpholin-4-yl-oxazol-2-yl)-2-morpholin-4-yl-ethyl]-cyclohexyl}-thiophen-2-yl-methyl)-dimethylamine], for which the inhibition at 1 µM came to 83%.

As for `COc1ccc(N2CCN(c3oc(C(CC4CCC(C(c5cccs5)N(C)C)CC4)N4CCOCC4)nc3Cc3ccccc3)CC2)cc1` (stereo not drawn) [compound 159, {[4-(2-{4-benzyl-5-[4-(4-methoxyphenyl)-piperazin-1-yl]-oxazol-2-yl}-2-morpholin-4-yl-ethyl)-cyclohexyl]-thiophen-2-yl-methyl}-dimethylamine], the inhibition at 1 µM is 94%.

`CC1CN(c2oc(C(CC3CCC(C(c4cccs4)N(C)C)CC3)N3CCOCC3)nc2Cc2ccccc2)CC(C)O1` (stereo not drawn) [compound 160, [(4-{2-[4-benzyl-5-(2,6-dimethyl-morpholin-4-yl)-oxazol-2-yl]-2-morpholin-4-yl-ethyl}-cyclohexyl)-thiophen-2-yl-methyl]-dimethylamine]: the inhibition at 1 µM came to 79%.

With `CN(C)C(c1cccs1)C1CCC(CC(c2nc(Cc3ccccc3)c(N3CCOCC3)o2)N2CCN(c3ccc(F)cc3)CC2)CC1` (stereo not drawn) [compound 161, [(4-{2-(4-benzyl-5-morpholin-4-yl-oxazol-2-yl)-2-[4-(4-fluorophenyl)-piperazin-1-yl]-ethyl}-cyclohexyl)-thiophen-2-yl-methyl]-dimethylamine], the inhibition at 1 µM turned out to be 87%.

Turning to `COc1ccc(N2CCN(c3oc(C(CC4CCC(C(c5cccs5)N(C)C)CC4)N4CCN(c5ccc(F)cc5)CC4)nc3Cc3ccccc3)CC2)cc1` (stereo not drawn) [compound 162, [(4-{2-{4-benzyl-5-[4-(4-methoxy-phenyl)-piperazin-1-yl]-oxazol-2-yl}-2-[4-(4-fluorophenyl)-piperazin-1-yl]-ethyl}-cyclohexyl)-thiophen-2-yl-methyl]-dimethylamine], the inhibition at 1 µM is 96%.

As for `COc1ccc(N2CCN(C(CC3CCC(C(c4cccs4)N(C)C)CC3)c3nc(Cc4ccccc4)c(N4CCCC4)o3)CC2)cc1` (stereo not drawn) [compound 163, [(4-{2-(4-benzyl-5-pyrrolidin-1-yl-oxazol-2-yl)-2-[4-(4-methoxyphenyl)-piperazin-1-yl]-ethyl}-cyclohexyl)-thiophen-2-yl-methyl]-dimethylamine], the inhibition at 1 µM was 83%.
